From patent publication US20240093034A1, “FLUORESCENT DYES” (EXOPHARM LIMITED, priority 2020, published 2024)

Legend:
CD4+ T cells = test: Multi-donor mixed lymphocyte reaction (mdMLR) assay; assay type: cell-based, human
Text: The immunomodulatory potential of dye 2-labelled and non-labelled MSC-EV preparations were compared in a multi-donor mixed lymphocyte reaction assay (MLR) as described previously (Madel et al., 2020, Independent human mesenchymal stromal cell-derived extracellular vesicle preparations differentially affect symptoms in an advanced murine Graft-versus-Host-Disease model. bioRxiv, 2020.2012.2021.423658). Briefly, Ficoll prepared peripheral blood mononuclear cells (PBMC) of 12 healthy donors were mixed in equal proportions, aliquoted and stored in the vapour phase of liquid nitrogen until usage. After thawing 600,000 cells were seeded per well of a 96-well U-bottom shape plates (Corning, Kaiserslautern, Germany) and cultured in 10% human AB serum (produced in house) and 100 U/mL penicillin and 100 µg/mL streptomycin (Thermo Fisher Scientific) supplemented RPMI 1640 medium (Thermo Fisher Scientific) in a final volume of 200 μL per well, either in the presence or absence of MSC-EV preparations to be tested. After 5 days, cells were harvested, stained with a collection of different fluorescent labelled antibodies (CD4-BV785; BioLegend, San Diego, CA, USA; CD25-PE-Cy5.5; BD Bioscience; and CD54-AF700; EXBIO) and analysed on a Cytoflex flow cytometer (Software CytExpert 2.3, Beckman-Coulter). […]

platelet-derived EVs = test: Labelling of extracellular vesicles with dyes (Superose 6 HPLC, UV and FLD detection); conditions: EV + 2 μM dye
Protocol: Labelling of extracellular vesicles (EVs) with dyes 1-10 was performed according to the following procedure. 20 μL of platelet-derived EVs were incubated in HPLC vials with or without each dye at a final concentration of 2 μM dye, the dye stock solution being made up in water. For negative controls, an equivalent volume of the diluent solution was added to the EV solution. The sample was mixed gently. Each sample was subsequently incubated for 1 hr at 37° C. Samples were transferred and stored in the autosampler set at 4° C. A batch table was setup that injected unlabelled EVs prior to labelled EVs. A blank injection was run after each labelled EV experiment to ensure there was no carryover. 15 μL of each sample was injected onto a Superose 6 Increase column (3.2/300) from Cytiva. The flow rate was set at 0.15 mL min* The Shimadzu BioHPLC was run in isocratic mode with Buffer A: 1× PBS (phosphate-buffered saline), pH 7.4, 100 nm filtered. The column oven temperature was set at 30° C. Total run duration was 30 min. Data was collected using two detectors. The PDA (UV detector) was set to scan from 190-800 nm and a channel of the FLD (fluorescence detector) was set at 562 nm/583 nm (Ex/Em). Titration experiments were conducted to confirm that excess dye was removed. The areas of the void peaks from the 214 nm absorption and the 583 nm emission were calculated by the LabSolutions software using the manual integration function. To normalise the fluorescent signal, the total fluorescent area was divided by the UV 214 nm area. This ratio can be used to rank each dye, with higher ratios indicative of greater incorporation.

PBMCs = test: Uptake of dye 2-labelled MSC-EVs by immune cells of the mdMLR assay; assay type: cell-based, human; conditions: 5 days with dye 2-labelled MSC-EVs
Protocol: The MSC-EV preparations were stained with dye 2 of the invention according to the following protocol. Dye 2 was provided as a lyophilised powder. 1 mg of dye 2 was resuspended with 1 mL buffer to a final concentration of […]. Like CFDA-SE, the dye 2 solution was centrifuged for 10 min at 17,000 x g to reduce background noise to a minimum. Briefly, for the EV-labelling 25 μL of the MSC-EV preparations were incubated with 25 μL of a prepared, centrifuged dye 2 solution (0.2 μM) for 1 hour at 37° C. The sample was diluted 1:20 to a final volume of 1 mL prior to analysis. For EV uptake experiments dye 2-labelled MSC-EV preparations were cleared from EV unbound dye 2 by ultrafiltration. Briefly, after labelling with dye 2, the MSC-EVs were washed by via centrifugation at 12,000xg through Vivaspin 500 filters (Sartorius) for 10 min. The retentate was collected as labelled EV sample.
The immunomodulatory potential of dye 2-labelled and non-labelled MSC-EV preparations were compared in a multi-donor mixed lymphocyte reaction assay (MLR) as described previously (Madel et al., 2020, Independent human mesenchymal stromal cell-derived extracellular vesicle preparations differentially affect symptoms in an advanced murine Graft-versus-Host-Disease model. bioRxiv, 2020.2012.2021.423658). Briefly, Ficoll prepared peripheral blood mononuclear cells (PBMC) of 12 healthy donors were mixed in equal proportions, aliquoted and stored in the vapour phase of liquid nitrogen until usage. After thawing 600,000 cells were seeded per well of a 96-well U-bottom shape plates (Corning, Kaiserslautern, Germany) and cultured in 10% human AB serum (produced in house) and 100 U/mL penicillin and 100 µg/mL streptomycin (Thermo Fisher Scientific) supplemented RPMI 1640 medium (Thermo Fisher Scientific) in a final volume of 200 μL per well, either in the presence or absence of MSC-EV preparations to be tested. After 5 days, cells were harvested, stained with a collection of different fluorescent labelled antibodies (CD4-BV785; BioLegend, San Diego, CA, USA; CD25-PE-Cy5.5; BD Bioscience; and CD54-AF700; EXBIO) and analysed on a Cytoflex flow cytometer (Software CytExpert 2.3, Beckman-Coulter). Activated and non-activated CD4^+ T cells were discriminated by means of their CD25 and CD54 expression, respectively. Typically, 5 μL of MSC-EV preparations to be tested were applied into respective wells. The following antibodies were used to further discriminate subpopulations: CD8-BV650 (BioLegend), CD14-PO (EXBIO), CD19-ECD (Beckman Coulter) and CD56-APC (BioLegend). The evaluation of the data was carried out with the Kaluza software (Version 2.1, Beckman Coulter).
To investigate whether EV labelling with dye 2 of the invention allows the identification of EV-uptaking cells, the labelled EV uptake of the different immune cells within the mdMLR assay was examined. To this end, a pool of PBMCs derived from 12 healthy donors were cultured for 5 days in the presence of dye 2-labelled MSC-EVs (n=3) that had been cleared from excess dye 2 by ultrafiltration. Thereafter, cells were harvested, antibody labelled and analysed by flow cytometry. The content of dye 2-labelled cells within different PBMC subtypes was determined. […] In contrast, only proportions of the different lymphocytes appeared as dye 2 positive cells, i.e. 71% of all CD4^+ T cells (CD4^+ cells), 34% of all CD8^+ T cells (CD8^+ cells), 72% of all B cells (CD19^+ cells) and 15% of all NK cells (CD56^+ cells). […]

CCCCCCCCCCCCCCCCCCN(C)C(=O)c1ccccc1-c1c2ccc(=[N+](CC)CC)cc-2oc2cc(N(CC)CC)ccc12.[Cl-] [Dye 2, Rhodamine B N-methyloctadecylamide]
influence on activation status of CD4+ T cells (CD4+ T cells; buffer solved dye alone): did not influence the activation status
reduction in CD4+ T cell activation (CD4+ T cells; dye 2-labelled MSC-EV preparations (n=3), versus non-labelled): comparable reduction
FLD area (EV + dye) (platelet-derived EVs; 1 hr 37° C., void peak area, 562 nm/583 nm (Ex/Em)): 2493643
Area FLD/Area UV (EV + dye) (platelet-derived EVs; higher ratio = greater incorporation): 4.50
dye 2 positive B cells (CD19+ cells) (PBMCs): 72%
dye 2 positive CD4+ T cells (PBMCs): 71%
dye 2 positive CD8+ T cells (PBMCs): 34%
dye 2 positive NK cells (CD56+ cells) (PBMCs): 15%
dye 2 positive monocytes (CD14+ cells) (PBMCs): 99%
